From ChEMBL document CHEMBL5518156, “Recent advances of targeting nicotinamide phosphoribosyltransferase (NAMPT) for cancer drug discovery” (Eur J Med Chem, 2023)

How the values were obtained:
[1] = target: Epidermal growth factor receptor (Homo sapiens, UniProt P00533, L861Q); test: Inhibition of human EGFR L861Q mutant by discoverX kinome scan assay
[2] = target: Epidermal growth factor receptor (Homo sapiens, UniProt P00533, L858R); test: Inhibition of EGFR L858R mutant (unknown origin)
HCT-116 = test: Antitumor activity against human HCT-116 cells xenografted in […] mouse assessed as tumor growth inhibition at 15 mg/kg, po administered for 3 days relative to control; format: functional; details: HCT-116, 72 h, time 3 day, read-out: TGI
Cytochrome P450 3A4 = Cytochrome P450 3A4 (Homo sapiens, UniProt P08684); test: Inhibition of CYP3A4 (unknown origin); format: ADME
[3] = Half life in Sprague-Dawley rat at 5 mg/kg, po measured for 24 hrs by LC/MS/MS analysis; format: ADME, organism-based; details: in vivo
[4] = Oral bioavailability in Sprague-Dawley rat at 5 mg/kg; format: ADME, organism-based; details: in vivo
Cytochrome P450 2C9 = Cytochrome P450 2C9 (Homo sapiens, UniProt P11712); test: Inhibition of CYP2C9 (unknown origin); format: ADME
[5] = target: T1, Nicotinamide phosphoribosyltransferase (Homo sapiens, UniProt P43490); test: Inhibition of NAMPT (unknown origin)
SH-SY5Y = test: Antiproliferative activity against human SH-SY5Y cells assessed as cell growth inhibition measured for 48 hrs by MTT assay; format: functional, cell-based
[6] = Cmax in Sprague-Dawley rat at 10 mg/kg, po by LC-MS analysis; format: ADME, organism-based; details: in vivo
[7] = Oral bioavailability in Sprague-Dawley rat at 10 mg/kg by LC-MS analysis; format: ADME, organism-based; details: in vivo
[8] = Oral bioavailability in ICR mouse at 5 mg/kg by LC-MS/MS analysis; format: ADME, organism-based; details: in vivo
[9] = Oral bioavailability in Sprague-Dawley rat at 5 mg/kg by LC-MS/MS analysis; format: ADME, organism-based; details: in vivo
[10] = Oral bioavailability in Cynomolgus monkey at 5 mg/kg; format: ADME, organism-based, Macaca fascicularis; details: in vivo
[11] = Clearance in cynomolgus monkey at 5 mg/kg, po; format: ADME, organism-based, Macaca fascicularis; details: in vivo
COLO 205 = test: Antitumor activity against human COLO 205 cells xenografted in mouse model assessed as tumor growth inhibition at 15 mg/kg, po administered once daily for 7 days relative to control; format: functional; details: COLO 205, 168 h, time 7 day, read-out: TGI
[12] = Oral bioavailability in Beagle dog at 5 mg/kg; format: ADME, organism-based, Canis lupus familiaris; details: in vivo
[13] = Clearance in Beagle dog at 5 mg/kg, po; format: ADME, organism-based, Canis lupus familiaris; details: in vivo
[14] = Clearance in ICR mouse at 5 mg/kg, po; format: ADME, organism-based; details: in vivo
[15] = Clearance in Sprague-Dawley rat at 5 mg/kg, po; format: ADME, organism-based; details: in vivo
[16] = target: von Hippel-Lindau disease tumor suppressor/Nicotinamide phosphoribosyltransferase (Homo sapiens, UniProt P43490+P40337); test: Protac activity at VHL/NAMPT in human A2780 cells assessed as degradation of NAMPT using NAM as substrate pre-incubated for 30 mins followed by substrate addition measured for 1 hr in presence of ATP by luminescence based microplate reader analysis; format: cell-based
[17] = Half life in mouse plasma at 5 mg/kg, iv by LC-MS/MS analysis; format: ADME, organism-based
[18] = Cmax in mouse plasma at 30 mg/kg, ip measured upto 24 hrs by LC-MS/MS analysis; format: ADME, organism-based
A2780 [19] = test: Antitumor activity against human A2780 cells xenografted in BALB/c nu/nu mouse assessed as tumor growth inhibition at 30 mg/kg, iv administered once daily for 2 weeks relative to control; format: functional; details: A2780, 336 h, read-out: TGI
A549 [20] = test: Antitumor activity against human A549 cells xenografted in BALB/c nude mouse assessed as tumor growth inhibition at 10 mg/kg, ip administered once daily for 20 days relative to control; format: functional; details: A549, 480 h, time 20 day, read-out: TGI
[21] = Oral bioavailability in mouse at 2 mg/kg; format: ADME, organism-based; details: in vivo
A549 [22] = test: Antitumor activity against human A549 cells xenografted in BALB/c nude mouse assessed as tumor growth inhibition at 20 mg/kg, ip administered once daily for 20 days relative to control; format: functional; details: A549, 480 h, time 20 day, read-out: TGI
Histone deacetylase 1 = Histone deacetylase 1 (Homo sapiens, UniProt Q13547); test: Inhibition of human recombinant HDAC1 using Boc-Lys(Ac)-AMC as substrate preincubated for 30 mins followed by substrate addition measured for 1 hr by fluorescence based analysis
[23] = Cmax in CD-1 mouse at 2 mg/kg, iv; format: ADME, organism-based; details: in vivo
[24] = AUC in CD-1 mouse at 2 mg/kg, iv; format: ADME, organism-based; details: in vivo
[25] = Oral bioavailability in CD-1 mouse at 2 mg/kg; format: ADME, organism-based; details: in vivo
[26] = Clearance in CD-1 mouse at 2 mg/kg, iv; format: ADME, organism-based; details: in vivo
[27] = target: T1, Nicotinamide phosphoribosyltransferase; test: Inhibition of N-terminal 6His-tagged human NAMPT (unknown origin) expressed in Escherichia coli Rosetta (DE) cells incubated for 1 hr by […]
MIA PaCa-2 = test: Antiproliferative activity against human MIA PaCa-2 cells assessed as reduction in cell viability incubated for 72 hrs by MTT assay; format: functional, cell-based; details: MIA PaCa-2, 72 h
[28] = Clearance in Sprague-Dawley rat at 1 mg/kg, iv; format: ADME, organism-based; details: in vivo
A2780 [29] = test: Antiproliferative activity against human A2780 cells assessed as reduction in cell viability measured for 72 hrs by MTT assay; format: functional, cell-based; details: A2780, 72 h

T1 sequence (P43490 whole entry): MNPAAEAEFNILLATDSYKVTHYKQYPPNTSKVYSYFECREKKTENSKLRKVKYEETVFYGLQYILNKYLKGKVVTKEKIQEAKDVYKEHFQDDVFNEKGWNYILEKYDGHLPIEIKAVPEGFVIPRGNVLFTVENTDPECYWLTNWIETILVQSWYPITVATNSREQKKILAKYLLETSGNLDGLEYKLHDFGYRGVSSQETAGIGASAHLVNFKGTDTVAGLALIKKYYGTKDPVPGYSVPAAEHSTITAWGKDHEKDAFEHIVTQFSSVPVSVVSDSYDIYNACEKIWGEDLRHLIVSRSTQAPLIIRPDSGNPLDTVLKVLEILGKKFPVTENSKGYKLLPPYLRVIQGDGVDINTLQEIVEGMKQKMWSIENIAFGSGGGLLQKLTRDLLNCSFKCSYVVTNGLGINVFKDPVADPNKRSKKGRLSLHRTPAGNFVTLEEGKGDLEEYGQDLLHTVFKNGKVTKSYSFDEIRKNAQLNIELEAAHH
Sequence of Cytochrome P450 3A4 (P08684 whole entry): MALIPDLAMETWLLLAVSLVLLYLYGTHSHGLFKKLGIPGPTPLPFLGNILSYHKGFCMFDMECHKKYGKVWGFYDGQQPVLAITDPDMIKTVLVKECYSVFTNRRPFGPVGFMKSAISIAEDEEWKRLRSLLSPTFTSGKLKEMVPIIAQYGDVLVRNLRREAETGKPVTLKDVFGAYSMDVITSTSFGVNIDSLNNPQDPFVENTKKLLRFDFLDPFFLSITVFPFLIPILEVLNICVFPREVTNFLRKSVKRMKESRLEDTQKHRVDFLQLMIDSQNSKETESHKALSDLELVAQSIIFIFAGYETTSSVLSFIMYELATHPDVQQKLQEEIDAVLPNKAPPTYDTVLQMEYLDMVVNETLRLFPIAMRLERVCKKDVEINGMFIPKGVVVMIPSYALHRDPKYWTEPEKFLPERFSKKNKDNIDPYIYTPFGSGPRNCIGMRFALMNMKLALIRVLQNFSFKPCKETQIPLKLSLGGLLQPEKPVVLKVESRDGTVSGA
Sequence of Epidermal growth factor receptor (Homo sapiens, UniProt P00533, L861Q) (P00533 25-1210 L861Q limits assumed): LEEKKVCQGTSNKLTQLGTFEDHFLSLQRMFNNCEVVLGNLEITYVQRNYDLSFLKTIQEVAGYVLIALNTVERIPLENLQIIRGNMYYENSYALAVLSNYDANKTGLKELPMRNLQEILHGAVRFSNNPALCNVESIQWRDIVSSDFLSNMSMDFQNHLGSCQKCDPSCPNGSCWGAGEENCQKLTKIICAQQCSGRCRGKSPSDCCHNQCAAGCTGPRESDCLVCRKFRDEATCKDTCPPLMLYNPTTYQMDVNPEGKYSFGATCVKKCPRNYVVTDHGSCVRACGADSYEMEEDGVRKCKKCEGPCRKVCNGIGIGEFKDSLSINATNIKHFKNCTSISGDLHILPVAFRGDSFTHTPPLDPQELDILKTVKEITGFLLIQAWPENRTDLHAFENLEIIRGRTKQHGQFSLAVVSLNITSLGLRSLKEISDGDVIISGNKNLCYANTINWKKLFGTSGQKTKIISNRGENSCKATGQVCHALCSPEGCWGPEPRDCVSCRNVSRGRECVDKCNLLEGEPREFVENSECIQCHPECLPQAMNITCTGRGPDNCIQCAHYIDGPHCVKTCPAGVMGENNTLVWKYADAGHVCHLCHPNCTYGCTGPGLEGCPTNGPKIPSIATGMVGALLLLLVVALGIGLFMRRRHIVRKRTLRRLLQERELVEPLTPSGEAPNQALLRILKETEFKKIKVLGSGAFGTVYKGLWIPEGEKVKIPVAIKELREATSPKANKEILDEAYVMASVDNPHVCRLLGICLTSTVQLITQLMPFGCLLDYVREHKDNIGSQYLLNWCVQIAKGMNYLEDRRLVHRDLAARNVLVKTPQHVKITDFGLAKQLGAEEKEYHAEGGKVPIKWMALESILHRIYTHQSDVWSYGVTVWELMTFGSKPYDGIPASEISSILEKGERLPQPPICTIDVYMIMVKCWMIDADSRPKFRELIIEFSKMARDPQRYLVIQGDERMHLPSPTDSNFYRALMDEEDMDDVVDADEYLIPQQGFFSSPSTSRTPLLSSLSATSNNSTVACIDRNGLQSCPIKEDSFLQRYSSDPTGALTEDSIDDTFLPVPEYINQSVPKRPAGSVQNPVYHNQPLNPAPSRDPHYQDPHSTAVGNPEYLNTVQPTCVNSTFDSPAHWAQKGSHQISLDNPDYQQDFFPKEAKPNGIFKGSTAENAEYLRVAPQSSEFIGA
Sequence of Histone deacetylase 1 (Q13547 whole entry): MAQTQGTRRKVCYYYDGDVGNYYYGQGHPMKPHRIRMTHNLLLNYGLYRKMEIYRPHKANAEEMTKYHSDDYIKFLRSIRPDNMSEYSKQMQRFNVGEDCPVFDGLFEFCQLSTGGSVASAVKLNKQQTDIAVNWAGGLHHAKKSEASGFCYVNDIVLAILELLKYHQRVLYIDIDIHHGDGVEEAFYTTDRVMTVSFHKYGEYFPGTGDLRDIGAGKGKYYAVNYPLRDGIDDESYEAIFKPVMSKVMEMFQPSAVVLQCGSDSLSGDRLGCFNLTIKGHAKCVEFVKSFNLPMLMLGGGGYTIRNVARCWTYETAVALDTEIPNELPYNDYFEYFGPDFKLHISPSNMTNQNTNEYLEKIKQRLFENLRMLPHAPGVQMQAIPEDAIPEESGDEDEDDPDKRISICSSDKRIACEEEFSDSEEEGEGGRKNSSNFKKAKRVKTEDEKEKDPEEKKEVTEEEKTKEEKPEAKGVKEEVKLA
Sequence of von Hippel-Lindau disease tumor suppressor/Nicotinamide phosphoribosyltransferase (P43490 whole entry): as the sequence (P43490 whole entry) above
Sequence of von Hippel-Lindau disease tumor suppressor/Nicotinamide phosphoribosyltransferase (P40337 whole entry): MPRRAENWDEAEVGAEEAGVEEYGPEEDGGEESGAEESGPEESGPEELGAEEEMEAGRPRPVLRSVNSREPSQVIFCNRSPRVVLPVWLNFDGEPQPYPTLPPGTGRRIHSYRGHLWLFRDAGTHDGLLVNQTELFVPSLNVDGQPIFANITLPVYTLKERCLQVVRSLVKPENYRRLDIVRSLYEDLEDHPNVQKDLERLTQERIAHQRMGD
Sequence of Epidermal growth factor receptor (Homo sapiens, UniProt P00533, L858R) (P00533 25-1210 L858R limits assumed): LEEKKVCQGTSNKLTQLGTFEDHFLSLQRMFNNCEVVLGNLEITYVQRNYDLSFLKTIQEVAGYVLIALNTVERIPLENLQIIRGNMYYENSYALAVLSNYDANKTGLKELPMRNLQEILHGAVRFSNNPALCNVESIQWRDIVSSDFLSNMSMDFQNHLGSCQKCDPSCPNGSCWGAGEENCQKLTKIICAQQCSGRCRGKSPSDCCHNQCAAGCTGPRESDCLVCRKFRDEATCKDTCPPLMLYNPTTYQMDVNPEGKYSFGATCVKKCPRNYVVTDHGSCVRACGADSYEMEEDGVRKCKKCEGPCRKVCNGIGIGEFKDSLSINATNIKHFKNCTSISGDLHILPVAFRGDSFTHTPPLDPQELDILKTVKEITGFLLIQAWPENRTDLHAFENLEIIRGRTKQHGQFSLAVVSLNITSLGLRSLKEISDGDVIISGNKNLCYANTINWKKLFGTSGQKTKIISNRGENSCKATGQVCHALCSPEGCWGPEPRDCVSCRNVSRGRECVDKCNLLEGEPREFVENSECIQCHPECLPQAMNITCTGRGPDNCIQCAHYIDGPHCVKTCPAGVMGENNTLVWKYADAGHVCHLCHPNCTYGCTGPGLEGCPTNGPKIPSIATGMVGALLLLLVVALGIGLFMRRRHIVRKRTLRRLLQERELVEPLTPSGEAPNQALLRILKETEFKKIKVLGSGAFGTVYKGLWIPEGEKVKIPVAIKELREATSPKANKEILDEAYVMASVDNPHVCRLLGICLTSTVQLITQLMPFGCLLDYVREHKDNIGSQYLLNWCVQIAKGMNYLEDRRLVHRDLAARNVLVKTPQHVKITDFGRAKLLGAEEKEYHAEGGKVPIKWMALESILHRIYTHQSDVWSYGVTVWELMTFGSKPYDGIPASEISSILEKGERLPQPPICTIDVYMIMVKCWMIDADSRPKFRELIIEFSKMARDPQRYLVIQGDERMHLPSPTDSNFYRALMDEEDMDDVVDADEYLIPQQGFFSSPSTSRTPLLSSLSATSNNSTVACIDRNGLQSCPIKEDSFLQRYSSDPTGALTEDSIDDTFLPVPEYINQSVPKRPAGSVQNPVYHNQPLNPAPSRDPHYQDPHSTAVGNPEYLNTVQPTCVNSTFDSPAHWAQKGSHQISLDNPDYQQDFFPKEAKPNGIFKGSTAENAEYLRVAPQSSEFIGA
Sequence of Cytochrome P450 2C9 (P11712 whole entry): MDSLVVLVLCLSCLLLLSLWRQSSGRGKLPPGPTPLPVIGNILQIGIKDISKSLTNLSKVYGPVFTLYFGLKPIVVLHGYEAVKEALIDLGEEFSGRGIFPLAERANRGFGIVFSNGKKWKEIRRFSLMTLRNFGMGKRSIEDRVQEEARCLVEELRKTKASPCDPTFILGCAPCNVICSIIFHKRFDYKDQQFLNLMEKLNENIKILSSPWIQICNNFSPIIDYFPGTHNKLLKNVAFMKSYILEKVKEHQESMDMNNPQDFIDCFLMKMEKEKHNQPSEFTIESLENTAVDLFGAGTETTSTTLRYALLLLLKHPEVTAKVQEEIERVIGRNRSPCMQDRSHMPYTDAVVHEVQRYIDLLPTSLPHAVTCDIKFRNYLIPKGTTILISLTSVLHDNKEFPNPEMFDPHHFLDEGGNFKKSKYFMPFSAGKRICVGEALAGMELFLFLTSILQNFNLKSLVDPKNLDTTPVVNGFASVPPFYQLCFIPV

Which results are given for C#Cc1cccc(Nc2ncnc3cc(OC)c(OCCCCCCCN/C(=N\C#N)Nc4ccncc4)cc23)c1?
IC50 [1]: 0.49 nM; IC50 [2]: 0.48 nM

For CC(C)(O)CC(=O)N1CCC(c2ccc(NC(=O)N3Cc4ccccc4C3)cc2)CC1, which inhibition in vivo at 15 mg/kg (HCT-116) is on record?
The inhibition in vivo at 15 mg/kg was 90%.

And the IC50 (Cytochrome P450 3A4)?
Its IC50 is over 20 µM.

What about the half-life [3] of the same compound?
Its half-life is 288 min.

And the bioavailability [4]?
Its bioavailability is 100%.

What about the IC50 (Cytochrome P450 2C9) of the same compound?
Its IC50 is over 20 µM.

With CN1CCN(Cc2cn(-c3cccc(C(=O)NCCCCCCCn4cc(-c5cccnc5)nn4)c3)nn2)CC1 as the compound, how does the IC50 [5] read?
The IC50 was 41.8 nM.

And the IC50 (SH-SY5Y)?
Its IC50 is over 10 µM.

With O=C(/C=C/c1cccnc1)NCCCCC1CCN(C(=O)c2ccc(N3CCN(CCCCCCC#Cc4cccc5c4CN(C4CCC(=O)NC4=O)C5=O)CC3)cc2)CC1 (configuration not stated) as the compound, how does the Cmax [6] read?
The Cmax was 135 ng/mL.

What about the bioavailability [7] of the same compound?
The bioavailability was 23.2%.

Which results are given for O=C(NCc1ccc(S(=O)(=O)c2cc(F)cc(F)c2)cc1)c1ccc2nccn2c1?
bioavailability [8]: 29.7%; bioavailability [9]: 33.9%; bioavailability [10]: 29.4%; CL/F [11]: 9.14 mL/min/kg; inhibition in vivo at 15 mg/kg (COLO 205): 57%; bioavailability [12]: 65.2%; CL/F [13]: 4.62 mL/min/kg; CL/F [14]: 36.4 mL/min/kg; CL/F [15]: 19.3 mL/min/kg

Which results are given for CCCn1c(=O)c(-c2ccc(C(=O)NCc3cccnc3)cc2)nc2ccc(NC(=O)CCCCCCCCCCC(=O)N[C@H](C(=O)N3C[C@H](O)C[C@H]3C(=O)N[C@@H](C)c3ccc(-c4scnc4C)cc3)C(C)(C)C)cc21?
DC50 [16]: 8.4 nM; half-life [17]: 593 min; Cmax [18]: 166 nM; inhibition in vivo at 30 mg/kg (A2780 [19]): 73%

For Cc1c(CNc2ccc(CCNC(=O)/C=C/c3cccnc3)cc2)oc2c1C(=O)C(=O)c1c-2ccc2c1CCCC2(C)C, which inhibition in vivo at 10 mg/kg (A549 [20]) is on record?
The inhibition in vivo at 10 mg/kg was 44.2%.

And the bioavailability [21]?
Its bioavailability is 5.8%.

And the inhibition in vivo at 20 mg/kg (A549 [22])?
Its inhibition in vivo at 20 mg/kg is 52.1%.

For Nc1ccccc1NC(=O)c1ccc(Cn2cc(-c3ccc(C(=O)NCc4cccnc4)cc3)nn2)cc1, which IC50 (Histone deacetylase 1) is on record?
Its IC50 is 55 µM.

With O=C(NCCCCCCCn1cc(-c2cccnc2)nn1)c1cccc(-n2cc(CN3CCC(O)CC3)nn2)c1 as the compound, how does the IC50 [5] read?
Its IC50 is 13.6 nM.

And the IC50 (SH-SY5Y)?
Its IC50 is over 10 µM.

Which results are given for CC(C)(O)CS(=O)(=O)Nc1ccc2c(c1)CCN(C(=O)COc1cccnc1)C2?
IC50 [5]: 3.2 nM; Cmax [23]: 57 nM; AUC [24]: 195 nM·h; bioavailability [25]: 39%; clearance [26]: 159 mL/min/kg

Which IC50 [27] does the source give for CC(=O)NCc1ncc2cc(COc3ccc(C(=O)NCc4cccnc4)cc3)n(CCC3CCCCC3)c2n1 here?
Its IC50 is 4.3 nM.

Which IC50 (MIA PaCa-2) does the source give for COC[C@H]1N[C@@H](c2ccc(NC(=O)c3ccc(CNS(=O)(=O)c4ccc(C(C)(C)C)cc4)cc3)cc2)[C@H](OC)[C@@H]1OC here?
Its IC50 is 32 µM.

Which inhibition in vivo at 15 mg/kg (HCT-116) does the source give for O=C(NC[C@@H]1CCOC1)c1ccc(NC(=O)N2Cc3ccccc3C2)cc1 here?
Its inhibition in vivo at 15 mg/kg is 78%.

What about the half-life [3] of the same compound?
Its half-life is 180 min.

What about the clearance [28] of the same compound?
The clearance was 4.33 mL/min/kg.

With Cc1ccc(C(=O)N(CCCNC(=O)CCCCCCCCN2CCN(S(=O)(=O)c3ccc(NC(=S)NCc4cccnc4)cc3)CC2)[C@@H](c2nc3cc(Cl)ccc3c(=O)n2Cc2ccccc2)C(C)C)cc1 as the compound, how does the IC50 [5] read?
Its IC50 is 490 nM.

What about the IC50 (A2780 [29]) of the same compound?
The IC50 was 46 nM.
